This assay has as its target T1, F508del (Homo sapiens, UniProt P13569, DEL508-508).
T1 construct: expressed in transfected cells
Briefly: Protocol 2: FRET membrane potential optical assay (VIPR), identification of correction compounds. Format: cell-based. The gist of the method: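 Single-addition HTS format: F508del-expressing NIH3T3 cells pre-incubated 16 hrs at 37° C. ± compound, with 27° C. culture as positive control. Channel activation by forskolin 10 μM and genistein 20 μM upon switch to gluconate bath, pH 7.4; read-out is FRET-based depolarization signal.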

The mark [1] stands for this setting: F508del CFTR modulator activity, compounds of Table 1, read-out: EC30.
Setting [2] is: Table 3, compounds of Table 1 as modulators of CFTR activity, protocol not stated.

As a reminder, the EC30 is the concentration at which the effect reaches the 30% level.

Like-named read-outs stand apart in the source and are kept apart here.

T1 sequence (P13569 with tags, fused parts or gaps DEL508-508): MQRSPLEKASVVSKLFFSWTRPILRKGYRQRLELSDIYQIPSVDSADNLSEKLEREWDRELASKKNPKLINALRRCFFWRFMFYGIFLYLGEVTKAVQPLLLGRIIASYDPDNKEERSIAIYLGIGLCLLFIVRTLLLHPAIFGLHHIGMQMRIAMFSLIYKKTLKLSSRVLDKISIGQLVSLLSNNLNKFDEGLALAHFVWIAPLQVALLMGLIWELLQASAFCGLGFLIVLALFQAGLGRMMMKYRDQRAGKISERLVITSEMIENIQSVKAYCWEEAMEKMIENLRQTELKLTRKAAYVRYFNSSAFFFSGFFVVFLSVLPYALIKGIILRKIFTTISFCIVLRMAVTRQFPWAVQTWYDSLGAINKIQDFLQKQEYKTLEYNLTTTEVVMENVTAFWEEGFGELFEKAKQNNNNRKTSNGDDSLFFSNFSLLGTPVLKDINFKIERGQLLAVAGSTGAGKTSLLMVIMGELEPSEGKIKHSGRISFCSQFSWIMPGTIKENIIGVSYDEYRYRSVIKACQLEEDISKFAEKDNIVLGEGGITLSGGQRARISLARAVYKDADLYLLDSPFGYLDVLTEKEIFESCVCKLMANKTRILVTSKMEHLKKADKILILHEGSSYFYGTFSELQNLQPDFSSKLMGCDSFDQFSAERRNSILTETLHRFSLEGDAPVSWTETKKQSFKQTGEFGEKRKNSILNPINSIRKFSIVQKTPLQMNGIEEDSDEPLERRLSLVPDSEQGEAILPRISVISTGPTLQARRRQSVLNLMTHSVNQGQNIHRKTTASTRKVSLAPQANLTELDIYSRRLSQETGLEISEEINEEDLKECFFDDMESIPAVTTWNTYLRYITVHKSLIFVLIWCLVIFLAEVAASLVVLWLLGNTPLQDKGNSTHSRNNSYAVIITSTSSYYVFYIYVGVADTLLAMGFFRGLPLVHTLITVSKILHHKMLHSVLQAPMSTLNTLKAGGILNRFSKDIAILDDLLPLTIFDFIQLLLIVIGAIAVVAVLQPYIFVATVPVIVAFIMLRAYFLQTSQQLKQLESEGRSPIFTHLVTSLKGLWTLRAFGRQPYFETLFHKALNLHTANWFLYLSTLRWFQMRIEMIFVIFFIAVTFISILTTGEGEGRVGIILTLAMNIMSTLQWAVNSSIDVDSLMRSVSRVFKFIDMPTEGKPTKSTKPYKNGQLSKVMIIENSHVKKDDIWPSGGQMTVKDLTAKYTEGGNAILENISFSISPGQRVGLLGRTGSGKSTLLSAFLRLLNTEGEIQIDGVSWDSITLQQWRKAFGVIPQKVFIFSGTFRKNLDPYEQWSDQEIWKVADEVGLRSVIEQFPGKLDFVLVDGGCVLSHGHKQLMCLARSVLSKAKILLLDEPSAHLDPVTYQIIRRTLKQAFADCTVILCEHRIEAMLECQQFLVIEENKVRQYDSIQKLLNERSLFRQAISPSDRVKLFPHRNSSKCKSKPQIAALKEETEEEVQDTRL

For the molecule `CC1CN(c2ncccc2C(=O)NS(=O)(=O)c2cccc(Nc3ccc4c(c3)OCCO4)n2)C(C)(C)C1` (stereo not drawn) [Compound 2190, N—[[6-(2,3-dihydro-1,4-benzodioxin-6-ylamino)-2-pyridyl]sulfonyl]-2-(2,2,4-trimethylpyrrolidin-1-yl)pyridine-3-carboxamide], under setting [1], the EC30 is below 3 µM.

Consider `C=Cc1ccc(C(=O)NS(=O)(=O)c2cccc(N)n2)c(Oc2c(C)cc(C)cc2C)n1` [Compound 430, N-[(6-amino-2-pyridyl)sulfonyl]-2-(2,4,6-trimethylphenoxy)-6-vinyl-pyridine-3-carboxamide], for which the EC30 entry under setting [2] is on record as “+++ (“+++” means <3 uM)”.

With `Cc1cc(C)c(Oc2nc(NC(C)(C)C)ccc2C(=O)NS(=O)(=O)c2cccc(N)n2)c(C)c1` [Compound 273, N-[(6-Amino-2-pyridyl)sulfonyl]-6-(tert-butylamino)-2-(2,4,6-trimethylphenoxy)pyridine-3-carboxamide], the EC30 result under setting [2] was “+++ (“+++” means <3 uM)”.

Regarding `Cc1ccc(-c2ccc(C(=O)NS(=O)(=O)c3ccc[nH]c3=O)c(N3C[C@@H](C)CC3(C)C)n2)cc1F` [Compound 2084, 6-(3-fluoro-4-methyl-phenyl)-N-[(2-oxo-1H-pyridin-3-yl)sulfonyl]-2-[(4S)-2,2,4-trimethylpyrrolidin-1-yl]pyridine-3-carboxamide], the 30% effect concentration (EC30) under setting [1] is below 3 µM.

Regarding `COc1ccc(CNc2cccc(S(=O)(=O)NC(=O)c3ccc(C(C)(C)C)nc3N3CC(C)CC3(C)C)n2)cc1` (stereo not drawn) [Compound 2712], the 30% effect concentration (EC30) under setting [1] is below 3 µM.

As for `CC(C)c1ccc(-c2nc(C(C)(C)C)ccc2C(=O)NS(=O)(=O)c2cccc(N)c2)cc1` [Compound 314, N-(3-aminophenyl)sulfonyl-6-tert-butyl-2-(4-isopropylphenyl)pyridine-3-carboxamide], under setting [2], the EC30 entry is given as “+++ (“+++” means <3 uM)”.

Turning to `Cc1cc(OCC(C)C)nn1-c1ccc(C(=O)NS(=O)(=O)c2cccnc2N)c(N2C[C@@H](C)CC2(C)C)n1` [Compound 2238, N-[(2-amino-3-pyridyl)sulfonyl]-6-(3-isobutoxy-5-methyl-pyrazol-1-yl)-2-[(4S)-2,2,4-trimethylpyrrolidin-1-yl]pyridine-3-carboxamide], under setting [1], the EC30 is below 3 µM.

As for `CC(C)COc1cc(F)cc(-c2ccc(C(=O)N(C)S(=O)(=O)c3cccc(N)n3)c(N3C[C@@H](C)CC3(C)C)n2)c1` [Compound 2258, N-[(6-amino-2-pyridyl)sulfonyl]-6-(3-fluoro-5-isobutoxy-phenyl)-N-methyl-2-[(4S)-2,2,4-trimethylpyrrolidin-1-yl]pyridine-3-carboxamide], the concentration for an effect of 30% (EC30) under setting [1] is below 3 µM.

Consider `CC1CN(c2ncccc2C(=O)NS(=O)(=O)c2cccc(OCc3ccc4ccccc4c3)n2)C(C)(C)C1` (stereo not drawn) [Compound 2151, N—[[6-(2-naphthylmethoxy)-2-pyridyl]sulfonyl]-2-(2,2,4-trimethylpyrrolidin-1-yl)pyridine-3-carboxamide], for which the EC30 under setting [1] was below 3 µM.

Take `CC(C)COc1cc(F)cc(-c2ccc(C(=O)NS(=O)(=O)c3cccc(N)n3)c(N3CCC[C@@H](C)C3)n2)c1` [Compound 408, N-[(6-amino-2-pyridyl)sulfonyl]-6-(3-fluoro-5-isobutoxy-phenyl)-2-[(3R)-3-methyl-1-piperidyl]pyridine-3-carboxamide]: the EC30 entry under setting [2] is on record as “+++ (“+++” means <3 uM)”.

Take `CC(C)Oc1ccc(-c2ccc(C(=O)NS(=O)(=O)c3cccc(N)n3)c(N3CCC(Cc4ccccc4)C3)n2)cn1` (stereo not drawn) [Compound 647, N-[(6-amino-2-pyridyl)sulfonyl]-2-(3-benzylpyrrolidin-1-yl)-6-(6-isopropoxy-3-pyridyl)pyridine-3-carboxamide]: the EC30 result under setting [2] was “+++ (“+++” means <3 uM)”.

Take `CC(C)COc1cc(F)cc(-c2ccc(C(=O)NS(=O)(=O)N3CCC(N)C3)c(N3CCCC3c3ccccc3)n2)c1` (single isomer, unassigned) [Compound 2477]: the EC30 under setting [1] was below 3 µM.

With `COc1ccccc1CNc1cccc(S(=O)(=O)NC(=O)c2cccnc2N2CC(C)CC2(C)C)n1` (stereo not drawn) [Compound 2310, N—[[6-[(2-methoxyphenyl)methylamino]-2-pyridyl]sulfonyl]-2-(2,2,4-trimethylpyrrolidin-1-yl)pyridine-3-carboxamide], the EC30 under setting [1] is below 3 µM.

Take `COc1ncc(F)cc1-c1ccc(C(=O)NS(=O)(=O)c2cccc(N)n2)c(Oc2c(C)cc(C)cc2C)n1` [Compound 387, N-[(6-amino-2-pyridyl)sulfonyl]-6-(5-fluoro-2-methoxy-3-pyridyl)-2-(2,4,6-trimethylphenoxy)pyridine-3-carboxamide]: the concentration for an effect of 30% (EC30) result under setting [2] is given as “+++ (“+++” means <3 uM)”.

On to `COc1cc(F)cc(-c2ccc(C(=O)NS(=O)(=O)c3ccc[nH]c3=O)c(Oc3c(C)cc(C)cc3C)n2)c1` [Compound 652, 6-(3-fluoro-5-methoxy-phenyl)-N-[(2-oxo-1H-pyridin-3-yl)sulfonyl]-2-(2,4,6-trimethylphenoxy)pyridine-3-carboxamide], for which the 30% effect concentration (EC30) entry under setting [2] was “++ (“++” means between 3 uM and 10 uM)”.

Consider `Cc1cccc(-c2ccc(C(=O)NS(=O)(=O)c3cccc(N)n3)c(N3C[C@@H](C)CC3(C)C)n2)c1C` [Compound 2287, N-[(6-amino-2-pyridyl)sulfonyl]-6-(2,3-dimethylphenyl)-2-[(4S)-2,2,4-trimethylpyrrolidin-1-yl]pyridine-3-carboxamide], for which, under setting [1], the EC30 is below 3 µM.

Turning to `CC(C)Oc1cncc(-c2ccc(C(=O)NS(=O)(=O)c3cccc(N)n3)c(N3[C@H](C)CC[C@@H]3C)n2)c1` [Compound 400, N-[(6-amino-2-pyridyl)sulfonyl]-2-[(2S,5R)-2,5-dimethylpyrrolidin-1-yl]-6-(5-isopropoxy-3-pyridyl)pyridine-3-carboxamide], under setting [2], the EC30 result is “++ (“++” means between 3 uM and 10 uM)”.

Consider `Cc1cc(C)c(Cn2c(C(=O)NS(=O)(=O)c3ccccc3)cc3ccc(F)cc32)c(C)c1` [Compound 212, N-(benzenesulfonyl)-6-fluoro-1-[(2,4,6-trimethylphenyl)methyl]indole-2-carboxamide], for which the EC30 result under setting [2] is given as “+++ (“+++” means <3 uM)”.

With `COCC1CCCCN1c1nc(-c2ccc(OC(C)C)nc2)ccc1C(=O)NS(=O)(=O)c1cccc(N)n1` (stereo not drawn) [Compound 574, N-[(6-amino-2-pyridyl)sulfonyl]-6-(6-isopropoxy-3-pyridyl)-2-[2-(methoxymethyl)-1-piperidyl]pyridine-3-carboxamide], the EC30 entry under setting [2] is “++ (“++” means between 3 uM and 10 uM)”.

For `COc1ccccc1S(=O)(=O)NC(=O)c1cc2ccccc2n1Cc1c(C)cc(C)cc1C` [Compound 183, N-(2-methoxyphenyl)sulfonyl-1-[(2,4,6-trimethylphenyl)methyl]indole-2-carboxamide], the EC30 entry under setting [2] is “+++ (“+++” means <3 uM)”.

Regarding `Cc1cc(C)c(Oc2nc(-c3ccc(C)c(O)c3)ccc2C(=O)NS(=O)(=O)c2cccc(N)n2)c(C)c1` [Compound 793, N-[(6-amino-2-pyridyl)sulfonyl]-6-(3-hydroxy-4-methyl-phenyl)-2-(2,4,6-trimethylphenoxy)pyridine-3-carboxamide], under setting [2], the EC30 entry is given as “+++ (“+++” means <3 uM)”.

Regarding `Cc1cccc(-c2nc(C(C)(C)C)ccc2C(=O)NS(=O)(=O)c2cccc(N)c2)c1` [Compound 282, N-(3-aminophenyl)sulfonyl-6-tert-butyl-2-(m-tolyl)pyridine-3-carboxamide], under setting [2], the EC30 result was “++ (“++” means between 3 uM and 10 uM)”.

As to `Cc1cc(C)c(Cn2c(C(=O)NS(=O)(=O)c3ccncc3)cc3ccccc32)c(C)c1` [Compound 227, N-(4-pyridylsulfonyl)-1-[(2,4,6-trimethylphenyl)methyl]indole-2-carboxamide], the concentration for an effect of 30% (EC30) entry under setting [2] is “++ (“++” means between 3 uM and 10 uM)”.

In the case of `CC(C)COc1cc(F)cc(-c2ccc(C(=O)NS(=O)(=O)c3ccn[nH]3)c(N3CCC(F)(F)C3)n2)c1` [Compound 565, 2-(3,3-difluoropyrrolidin-1-yl)-6-(3-fluoro-5-isobutoxy-phenyl)-N-(1H-pyrazol-5-ylsulfonyl)pyridine-3-carboxamide], the EC30 result under setting [2] is given as “+ (“+” means greater than 10 uM)”.

As for `C[C@@H]1CN(c2nc(C3CC(C)(C)CCC3O)ccc2C(=O)NS(=O)(=O)c2cccnc2N)C(C)(C)C1` (stereo partly drawn) [Compound 2047, N-[(2-amino-3-pyridyl)sulfonyl]-6-(2-hydroxy-5,5-dimethyl-cyclohexyl)-2-[(4S)-2,2,4-trimethylpyrrolidin-1-yl]pyridine-3-carboxamide], the EC30 under setting [1] lay in the range of 3 to 10 µM.

As to `Cc1cc(C)c(Oc2nc(-c3ccc(F)cc3)ccc2C(=O)NS(=O)(=O)c2cc[nH]n2)c(C)c1` [Compound 518, 6-(4-fluorophenyl)-N-(1H-pyrazol-3-ylsulfonyl)-2-(2,4,6-trimethylphenoxy)pyridine-3-carboxamide], the 30% effect concentration (EC30) entry under setting [2] is given as “+++ (“+++” means <3 uM)”.

With `Cc1cc(C)c(CN2Cc3ccccc3C2C(=O)NS(=O)(=O)c2cccc(=O)[nH]2)c(C)c1` (stereo not drawn) [Compound 319, N-[(6-oxo-1H-pyridin-2-yl)sulfonyl]-2-[(2,4,6-trimethylphenyl)methyl]isoindoline-1-carboxamide], the EC30 result under setting [2] was “++ (“++” means between 3 uM and 10 uM)”.

In the case of `Cc1cc(C)c(Cn2nc(C(C)(C)C)cc2C(=O)NS(=O)(=O)c2cccc(O)c2)c(C)c1` [Compound 84, 5-tert-butyl-N-(3-hydroxyphenyl)sulfonyl-2-[(2,4,6-trimethylphenyl)methyl]pyrazole-3-carboxamide], the concentration for an effect of 30% (EC30) entry under setting [2] is given as “+++ (“+++” means <3 uM)”.

For the molecule `COc1c(F)cc(F)cc1-c1ccc(C(=O)NS(=O)(=O)c2cccnc2N)c(N2C[C@@H](C)CC2(C)C)n1` [Compound 2006, N-[(2-amino-3-pyridyl)sulfonyl]-6-(3,5-difluoro-2-methoxy-phenyl)-2-[(4S)-2,2,4-trimethylpyrrolidin-1-yl]pyridine-3-carboxamide], the EC30 under setting [1] is below 3 µM.

`Cc1cc(C)c(Cn2nc(C(C)(C)C)cc2C(=O)NS(=O)(=O)c2cccc(CO)c2)c(C)c1` [Compound 39, 5-tert-butyl-N-[3-(hydroxymethyl)phenyl]sulfonyl-2-[(2,4,6-trimethylphenyl)methyl]pyrazole-3-carboxamide]: the EC30 entry under setting [2] was “++ (“++” means between 3 uM and 10 uM)”.

These data come from patent US10758534B2 (Vertex Pharmaceuticals Incorporated, priority 2014, dated 2020).
